Values quoted from earlier work as cited in patent US11224576B2, “Process for the production of an abuse-proofed dosage form” (GRÜNENTHAL GMBH, priority 2004, dated 2022).

Q: With `COc1cccc(C2(O)CCCCC2CN(C)C)c1` (stereo not shown) [Tramadol, tramadol] as the molecule, how does the water solubility read?
A: The water solubility was “excellent”.
